From paper PMC10938783, “A novel pan-PI3K inhibitor KTC1101 synergizes with anti-PD-1 therapy by targeting tumor suppression and immune activation” (Molecular Cancer, 2024)

System: B16 cells gene expression
Test: RNA-Seq (DEGs, GSEA, heatmaps) of B16 cells
Conditions: B16 cells, KTC 0.2μM

Question: Which results are given for `COc1cc(N)cc2c1nc(C(F)F)n2-c1nc(N2CCCOCC2)nc(N2CCOCC2)n1` [KTC1101, 2-(difluoromethyl)-4-methoxy-1-(4-morpholino-6-(1,4-oxazepan-4-yl)-1,3,5-triazin-2-yl)-1H-benzo[d]imidazol-6-amine]?
Answer: NES: Platinum drug resistance (GSEA KEGG mmu01524): -1.706; enrichmentScore: Platinum drug resistance (GSEA KEGG mmu01524): -0.4321; NES: Ribosome (GSEA KEGG mmu03010): 2.0791; enrichmentScore: Ribosome (GSEA KEGG mmu03010): 0.5599; NES: Nucleocytoplasmic transport (GSEA KEGG mmu03013): -1.168; enrichmentScore: Nucleocytoplasmic transport (GSEA KEGG mmu03013): -0.2706; NES: DNA replication (GSEA KEGG mmu03030): -1.22; enrichmentScore: DNA replication (GSEA KEGG mmu03030): -0.374; NES: Proteasome (GSEA KEGG mmu03050): -1.869; enrichmentScore: Proteasome (GSEA KEGG mmu03050): -0.5072; NES: PPAR signaling pathway (GSEA KEGG mmu03320): -1.414; enrichmentScore: PPAR signaling pathway (GSEA KEGG mmu03320): -0.3831; NES: Homologous recombination (GSEA KEGG mmu03440): -1.259; enrichmentScore: Homologous recombination (GSEA KEGG mmu03440): -0.3597; NES: MAPK signaling pathway (GSEA KEGG mmu04010): 1.18; enrichmentScore: MAPK signaling pathway (GSEA KEGG mmu04010): 0.3038; NES: ErbB signaling pathway (GSEA KEGG mmu04012): 1.235; enrichmentScore: ErbB signaling pathway (GSEA KEGG mmu04012): 0.3633; NES: Rap1 signaling pathway (GSEA KEGG mmu04015): 1.294; enrichmentScore: Rap1 signaling pathway (GSEA KEGG mmu04015): 0.3507; NES: Calcium signaling pathway (GSEA KEGG mmu04020): 1.795; enrichmentScore: Calcium signaling pathway (GSEA KEGG mmu04020): 0.4973; NES: cGMP-PKG signaling pathway (GSEA KEGG mmu04022): 1.703; enrichmentScore: cGMP-PKG signaling pathway (GSEA KEGG mmu04022): 0.4759; NES: cAMP signaling pathway (GSEA KEGG mmu04024): 1.563; enrichmentScore: cAMP signaling pathway (GSEA KEGG mmu04024): 0.4327; NES: Cytokine-cytokine receptor interaction (GSEA KEGG mmu04060): 1.941; enrichmentScore: Cytokine-cytokine receptor interaction (GSEA KEGG mmu04060): 0.59; NES: Viral protein interaction with cytokine and cytokine receptor (GSEA KEGG mmu04061): 2.1; enrichmentScore: Viral protein interaction with cytokine and cytokine receptor (GSEA KEGG mmu04061): 0.7876; NES: Chemokine signaling pathway (GSEA KEGG mmu04062): 1.837; enrichmentScore: Chemokine signaling pathway (GSEA KEGG mmu04062): 0.514; NES: NF-kappa B signaling pathway (GSEA KEGG mmu04064): 1.257; enrichmentScore: NF-kappa B signaling pathway (GSEA KEGG mmu04064): 0.3844; NES: HIF-1 signaling pathway (GSEA KEGG mmu04066): -1.602; enrichmentScore: HIF-1 signaling pathway (GSEA KEGG mmu04066): -0.3782; NES: Phospholipase D signaling pathway (GSEA KEGG mmu04072): 1.435; enrichmentScore: Phospholipase D signaling pathway (GSEA KEGG mmu04072): 0.4011; NES: Neuroactive ligand-receptor interaction (GSEA KEGG mmu04080): 1.734; enrichmentScore: Neuroactive ligand-receptor interaction (GSEA KEGG mmu04080): 0.5578; NES: Cell cycle (GSEA KEGG mmu04110): -1.229; enrichmentScore: Cell cycle (GSEA KEGG mmu04110): -0.265; NES: Oocyte meiosis (GSEA KEGG mmu04114): -1.291; enrichmentScore: Oocyte meiosis (GSEA KEGG mmu04114): -0.2991; NES: Protein processing in endoplasmic reticulum (GSEA KEGG mmu04141): -1.222; enrichmentScore: Protein processing in endoplasmic reticulum (GSEA KEGG mmu04141): -0.2637; NES: Lysosome (GSEA KEGG mmu04142): -1.281; enrichmentScore: Lysosome (GSEA KEGG mmu04142): -0.2917; NES: Phagosome (GSEA KEGG mmu04145): -1.483; enrichmentScore: Phagosome (GSEA KEGG mmu04145): -0.3503; NES: PI3K-Akt signaling pathway (GSEA KEGG mmu04151): 1.456; enrichmentScore: PI3K-Akt signaling pathway (GSEA KEGG mmu04151): 0.3693; NES: Cellular senescence (GSEA KEGG mmu04218): 1.209; enrichmentScore: Cellular senescence (GSEA KEGG mmu04218): 0.3231; NES: Cardiac muscle contraction (GSEA KEGG mmu04260): 1.313; enrichmentScore: Cardiac muscle contraction (GSEA KEGG mmu04260): 0.4187; NES: Adrenergic signaling in cardiomyocytes (GSEA KEGG mmu04261): 1.264; enrichmentScore: Adrenergic signaling in cardiomyocytes (GSEA KEGG mmu04261): 0.3566; NES: Wnt signaling pathway (GSEA KEGG mmu04310): 1.195; enrichmentScore: Wnt signaling pathway (GSEA KEGG mmu04310): 0.334; NES: Notch signaling pathway (GSEA KEGG mmu04330): 1.378; enrichmentScore: Notch signaling pathway (GSEA KEGG mmu04330): 0.4468; NES: Hedgehog signaling pathway (GSEA KEGG mmu04340): -1.456; enrichmentScore: Hedgehog signaling pathway (GSEA KEGG mmu04340): -0.4001; NES: TGF-beta signaling pathway (GSEA KEGG mmu04350): 1.497; enrichmentScore: TGF-beta signaling pathway (GSEA KEGG mmu04350): 0.4579; NES: VEGF signaling pathway (GSEA KEGG mmu04370): -1.413; enrichmentScore: VEGF signaling pathway (GSEA KEGG mmu04370): -0.3829; NES: Apelin signaling pathway (GSEA KEGG mmu04371): 1.504; enrichmentScore: Apelin signaling pathway (GSEA KEGG mmu04371): 0.4209; NES: Osteoclast differentiation (GSEA KEGG mmu04380): 1.356; enrichmentScore: Osteoclast differentiation (GSEA KEGG mmu04380): 0.3943; NES: Hippo signaling pathway (GSEA KEGG mmu04390): 1.527; enrichmentScore: Hippo signaling pathway (GSEA KEGG mmu04390): 0.4244; NES: Focal adhesion (GSEA KEGG mmu04510): 1.45; enrichmentScore: Focal adhesion (GSEA KEGG mmu04510): 0.3877; NES: ECM-receptor interaction (GSEA KEGG mmu04512): 1.51; enrichmentScore: ECM-receptor interaction (GSEA KEGG mmu04512): 0.4857; NES: Gap junction (GSEA KEGG mmu04540): 1.307; enrichmentScore: Gap junction (GSEA KEGG mmu04540): 0.3903; NES: Complement and coagulation cascades (GSEA KEGG mmu04610): 1.788; enrichmentScore: Complement and coagulation cascades (GSEA KEGG mmu04610): 0.6389; NES: Neutrophil extracellular trap formation (GSEA KEGG mmu04613): 1.259; enrichmentScore: Neutrophil extracellular trap formation (GSEA KEGG mmu04613): 0.3655; NES: Toll-like receptor signaling pathway (GSEA KEGG mmu04620): 1.2254; enrichmentScore: Toll-like receptor signaling pathway (GSEA KEGG mmu04620): 0.3682; NES: NOD-like receptor signaling pathway (GSEA KEGG mmu04621): 1.434; enrichmentScore: NOD-like receptor signaling pathway (GSEA KEGG mmu04621): 0.4008; NES: C-type lectin receptor signaling pathway (GSEA KEGG mmu04625): 1.433; enrichmentScore: C-type lectin receptor signaling pathway (GSEA KEGG mmu04625): 0.4281; NES: JAK-STAT signaling pathway (GSEA KEGG mmu04630): 1.466; enrichmentScore: JAK-STAT signaling pathway (GSEA KEGG mmu04630): 0.4286; NES: Hematopoietic cell lineage (GSEA KEGG mmu04640): 1.336; enrichmentScore: Hematopoietic cell lineage (GSEA KEGG mmu04640): 0.501; NES: IL-17 signaling pathway (GSEA KEGG mmu04657): 1.494; enrichmentScore: IL-17 signaling pathway (GSEA KEGG mmu04657): 0.4654; NES: Th17 cell differentiation (GSEA KEGG mmu04659): 1.198; enrichmentScore: Th17 cell differentiation (GSEA KEGG mmu04659): 0.3665; NES: Fc epsilon RI signaling pathway (GSEA KEGG mmu04664): -1.329; enrichmentScore: Fc epsilon RI signaling pathway (GSEA KEGG mmu04664): -0.3636; NES: TNF signaling pathway (GSEA KEGG mmu04668): 1.66; enrichmentScore: TNF signaling pathway (GSEA KEGG mmu04668): 0.4756; NES: Circadian rhythm (GSEA KEGG mmu04710): -1.714; enrichmentScore: Circadian rhythm (GSEA KEGG mmu04710): -0.5347; NES: Circadian entrainment (GSEA KEGG mmu04713): 1.598; enrichmentScore: Circadian entrainment (GSEA KEGG mmu04713): 0.4957; NES: Synaptic vesicle cycle (GSEA KEGG mmu04721): -1.378; enrichmentScore: Synaptic vesicle cycle (GSEA KEGG mmu04721): -0.3771; NES: Neurotrophin signaling pathway (GSEA KEGG mmu04722): 1.347; enrichmentScore: Neurotrophin signaling pathway (GSEA KEGG mmu04722): 0.3745; NES: Glutamatergic synapse (GSEA KEGG mmu04724): 1.249; enrichmentScore: Glutamatergic synapse (GSEA KEGG mmu04724): 0.3819; NES: Cholinergic synapse (GSEA KEGG mmu04725): 1.403; enrichmentScore: Cholinergic synapse (GSEA KEGG mmu04725): 0.4174; NES: Olfactory transduction (GSEA KEGG mmu04740): 1.83; enrichmentScore: Olfactory transduction (GSEA KEGG mmu04740): 0.66; NES: Taste transduction (GSEA KEGG mmu04742): 1.885; enrichmentScore: Taste transduction (GSEA KEGG mmu04742): 0.7021; NES: Regulation of actin cytoskeleton (GSEA KEGG mmu04810): 1.182; enrichmentScore: Regulation of actin cytoskeleton (GSEA KEGG mmu04810): 0.312; NES: Motor proteins (GSEA KEGG mmu04814): -1.623; enrichmentScore: Motor proteins (GSEA KEGG mmu04814): -0.3694; NES: Insulin secretion (GSEA KEGG mmu04911): 1.364; enrichmentScore: Insulin secretion (GSEA KEGG mmu04911): 0.4349; NES: Ovarian steroidogenesis (GSEA KEGG mmu04913): 1.397; enrichmentScore: Ovarian steroidogenesis (GSEA KEGG mmu04913): 0.499; NES: Progesterone-mediated oocyte maturation (GSEA KEGG mmu04914): -1.352; enrichmentScore: Progesterone-mediated oocyte maturation (GSEA KEGG mmu04914): -0.3392; NES: Thyroid hormone synthesis (GSEA KEGG mmu04918): 1.21; enrichmentScore: Thyroid hormone synthesis (GSEA KEGG mmu04918): 0.3822; NES: Thyroid hormone signaling pathway (GSEA KEGG mmu04919): -1.193; enrichmentScore: Thyroid hormone signaling pathway (GSEA KEGG mmu04919): -0.278; NES: Oxytocin signaling pathway (GSEA KEGG mmu04921): 1.2549; enrichmentScore: Oxytocin signaling pathway (GSEA KEGG mmu04921): 0.3525; NES: Glucagon signaling pathway (GSEA KEGG mmu04922): -1.435; enrichmentScore: Glucagon signaling pathway (GSEA KEGG mmu04922): -0.3522; NES: Regulation of lipolysis in adipocytes (GSEA KEGG mmu04923): 1.37; enrichmentScore: Regulation of lipolysis in adipocytes (GSEA KEGG mmu04923): 0.4649; NES: Renin secretion (GSEA KEGG mmu04924): 1.644; enrichmentScore: Renin secretion (GSEA KEGG mmu04924): 0.5567; NES: Aldosterone synthesis and secretion (GSEA KEGG mmu04925): 1.273; enrichmentScore: Aldosterone synthesis and secretion (GSEA KEGG mmu04925): 0.3803; NES: Relaxin signaling pathway (GSEA KEGG mmu04926): 1.257; enrichmentScore: Relaxin signaling pathway (GSEA KEGG mmu04926): 0.3545; NES: Cortisol synthesis and secretion (GSEA KEGG mmu04927): 1.396; enrichmentScore: Cortisol synthesis and secretion (GSEA KEGG mmu04927): 0.4573; NES: Parathyroid hormone synthesis, secretion and action (GSEA KEGG mmu04928): 1.74; enrichmentScore: Parathyroid hormone synthesis, secretion and action (GSEA KEGG mmu04928): 0.5119; NES: Insulin resistance (GSEA KEGG mmu04931): -1.682; enrichmentScore: Insulin resistance (GSEA KEGG mmu04931): -0.394; NES: AGE-RAGE signaling pathway in diabetic complications (GSEA KEGG mmu04933): 1.385; enrichmentScore: AGE-RAGE signaling pathway in diabetic complications (GSEA KEGG mmu04933): 0.4005; NES: Growth hormone synthesis, secretion and action (GSEA KEGG mmu04935): 1.209; enrichmentScore: Growth hormone synthesis, secretion and action (GSEA KEGG mmu04935): 0.3459; NES: Collecting duct acid secretion (GSEA KEGG mmu04966): -1.6527; enrichmentScore: Collecting duct acid secretion (GSEA KEGG mmu04966): -0.5648; NES: Gastric acid secretion (GSEA KEGG mmu04971): 1.497; enrichmentScore: Gastric acid secretion (GSEA KEGG mmu04971): 0.4728; NES: Carbohydrate digestion and absorption (GSEA KEGG mmu04973): 1.258; enrichmentScore: Carbohydrate digestion and absorption (GSEA KEGG mmu04973): 0.4436; NES: Protein digestion and absorption (GSEA KEGG mmu04974): 1.8879; enrichmentScore: Protein digestion and absorption (GSEA KEGG mmu04974): 0.6074
